Test results reported in patent US4794197A, “All-cis-1,3,5-triamino-2,4,6,-cyclohexanetriol derivatives, their use, processes for their preparation and pharmaceutical preparations containing them” (priority 1985, dated 1988).
Like-named read-outs stand apart in the source and are kept apart here.

Legend:
pK-values (approximate) = type: physicochemical
[1] = Response to iron(III): keeping iron(III) in solution by complex formation; type: physicochemical
[2] = orientating LD50-toxicity test on white mice after intravenous injection; conditions: mouse, in vivo
Text: (§1) all-cis-1,3,5-Triamino-2,4,6-cyclohexanetriol (10), all-cis-1,3,5-tris-(dimethylamino)-2,4,6-cyclohexane triol hydrochloride (12a), all-cis-1,3,5-tris-(trimethylammonio)-2,4,6-[…] (19c) and all-cis-1,3,5-tris-(succinoylamino)-2,4,6-cyclohexanetriol are found to have the following values in mg/kg of body weight in the orientating LD50 -toxicity test on white mice after intravenous injection: 158, 440, 235 and >1000. The elimination of iron from rats with an excessively high iron level by excretion in the urine and faeces after intravenous administration is shown in the following Table by comparison with the figures obtained with Desferal. The rates of excretion were measured over 72 hours after application.

[3] = system: rats with an excessively high iron level; assay: elimination of iron from rats with an excessively high iron level by excretion in urine and faeces after intravenous administration; type: in vivo; conditions: over 72 hours, by comparison with Desferal (= 1)
Text: as §1

Solubility = type: physicochemical
[4] = general statement on toxicity
[5] = Response to β-FeO(OH): dissolution of this rust; conditions: in words
[6] = cited from earlier work
[7] = parenteral; cited from earlier work
[8] = pK2, second lowest value of the list
[9] = pK3, third lowest value of the list
[10] = pK4, fourth lowest value of the list
[11] = pK5, fifth lowest value of the list
[12] = pK6, sixth lowest value of the list
[13] = white mice, intravenous injection, orientating test, read-out: LD50

Compound `O=P(O)(O)CN[C@H]1[C@@H](O)[C@@H](NCP(=O)(O)O)[C@@H](O)[C@@H](NCP(=O)(O)O)[C@H]1O` [Example 11, all-cis-1,3,5-Tris-(ammoniomethanephosphonic acid)-2,4,6-cyclohexanetriol trichloride] has a pKa (pK-values (approximate); pK1, lowest value of the list) of ~5.2, a pKa (pK-values (approximate); [8]) of ~6 and a pKa (pK-values (approximate); [9]) of ~6.5. For the same compound, the pKa (pK-values (approximate); [10]) was ~7, the pKa (pK-values (approximate); [11]) was ~8 and the pKa (pK-values (approximate); [12]) was ~9.5.

In the case of `O=C(O)CCN[C@H]1[C@@H](O)[C@@H](NCCC(=O)O)[C@@H](O)[C@@H](NCCC(=O)O)[C@H]1O` [Example 12], the pKa (pK-values (approximate); pK1, lowest value of the list) is reported as ~6.2, the pKa (pK-values (approximate); [8]) is reported as ~8.2 and the pKa (pK-values (approximate); [9]) is reported as ~9.7. For the same compound, the “pH range in which a solution containing Fe(III) and ligand is clear” value ([1]; Fe(III):ligand=1:1, result in words) was “clear over the entire ranges of pH”, the “solubility of the iron complex” value ([1]; pH 3 to 6) was “relatively sparingly soluble” and the “maximum Fe(III) kept in solution per ligand” value ([1]; pH 7.5) was ≤ 2 Fe(III) per ligand.

For `C[N+](C)(C)[C@H]1[C@@H](O)[C@@H]([N+](C)(C)C)[C@@H](O)[C@@H]([N+](C)(C)C)[C@H]1O` [Example 19c], the LD50 [2, 13] was 235 mg/kg, the “elimination of iron by excretion in the faeces” value (“elimination … in the faeces” below) [3] was 0.5 and the “elimination of iron by excretion in the urine” value (“elimination … in the urine” for short) [3] was 0.2.

In the case of `CN(C)[C@H]1[C@@H](O)[C@@H](N(C)C)[C@@H](O)[C@@H](N(C)C)[C@H]1O` [Example 12b, all-cis-1,3,5-Tris-(dimethylammonio)-2,4,6-cyclohexanetriol sulphate], the “solubility in boiling methanol” value (Solubility; boiling methanol) is reported as “virtually insoluble”.

In the case of `N[C@H]1[C@@H](O)[C@@H](N)[C@@H](O)[C@@H](N)[C@H]1O` [Example 10, all-cis-1,3,5-Triamino-2,4,6-cyclohexanetriol], the LD50 [2, 13] is reported as 158 mg/kg, the toxicity [4] is reported as “relatively low toxicity” and the “elimination … in the faeces” value [3] is reported as 0.2. The “elimination … in the urine” value [3] was 0.1.

With `CN(C)[C@H]1[C@@H](O)[C@@H](N(C)C)[C@@H](O)[C@@H](N(C)C)[C@H]1O` [Example 12a, all-cis-1,3,5-Tris-(dimethylammonio)-2,4,6-cyclohexanetriol trichloride dihydrate] the LD50 ([2]; iv) was 440 mg/kg, the “elimination … in the faeces” value [3] was 0.5 and the “elimination … in the urine” value [3] was 1.

In the case of `N#CCN[C@H]1[C@@H](O)[C@@H](NCC#N)[C@@H](O)[C@@H](NCC#N)[C@H]1O` [all-cis-1,3,5-tris-(aminoacetic acid nitrile)-2,4,6-cyclohexanetriol], the pKa (pK-values (approximate); highest pK of nitrile intermediate) is reported as ~6.5 and the pKa (pK-values (approximate); next lowest pK of nitrile intermediate) is reported as ~3.

For `O=C(O)CCC(=O)N[C@H]1[C@@H](O)[C@@H](NC(=O)CCC(=O)O)[C@@H](O)[C@@H](NC(=O)CCC(=O)O)[C@H]1O` [Example 16, all-cis-1,3,5a-tris-(succinoylamino)-2,4,6-cyclohexanetriol], the LD50 [2, 13] was > 1000 mg/kg, the Solubility (Solubility; cyclohexane) was “sparingly” and the Solubility (Solubility; water) was “Readily”. The Solubility (Solubility; water/EtOH) was “Readily” and the Solubility (Solubility; water/MeOH) was “Readily”.

For `CCCCN(CC(=O)O)[C@H]1[C@@H](O)[C@@H](N(CCCC)CC(=O)O)[C@@H](O)[C@@H](N(CCCC)CC(=O)O)[C@H]1O` [Example 15, all-cis-1,3,5-(N-butylammonioacetic acid)-2,4,6-cyclohexanetriol trichloride], the “Response to β-FeO(OH)” value [5] was “Identical to Examples 13 and 14”.

In the case of `CC(=O)N(O)CCCCCNC(=O)CCC(=O)N(O)CCCCCNC(=O)CCC(=O)N(O)CCCCCN` [Desferal, 30-amino-3,14,25-trihydroxy-3,9,14,20,25-pentaaza-2,10,13,21,24-triacontane-pentanone-methane sulphonate, reference compound], the “serious side effects after prolonged administration” value [6] is given as “visual disturbances”, the “elimination … in the faeces” value [3] is given as 1 and the “elimination … in the urine” value [3] is given as 1. The “half life in the body” value [7] was “very short”.

In the case of `O=C(O)CN[C@H]1[C@@H](O)[C@@H](NCC(=O)O)[C@@H](O)[C@@H](NCC(=O)O)[C@H]1O` [Example 13, all-cis-1,3,5-Tris-(ammonioacetic acid)-2,4,6-cyclohexanetriol trichloride], the pKa (pK-values (approximate); [10]) is reported as ~5.7, the pKa (pK-values (approximate); [11]) is reported as ~7.8 and the pKa (pK-values (approximate); [12]) is reported as ~8.9. The pKa (pK-values (approximate); three lowest pK-values) was < 3 and the “precipitation of iron hydroxide” value ([1]; ligand:iron ratio of 1:1, pH higher than about 11) was “Iron hydroxide precipitates”.

Work on `N#CCCN[C@H]1[C@@H](O)[C@@H](NCCC#N)[C@@H](O)[C@@H](NCCC#N)[C@H]1O` [all-cis-1,3,5-tris-(2'-aminopropionitrile)-2,4,6-cyclohexanetriol] yielded a pKa (pK-values (approximate); pK1, lowest value of the list) of ~3, a pKa (pK-values (approximate); [8]) of ~4.5 and a pKa (pK-values (approximate); [9]) of ~6.3.
